Assay results published in US20260207656A1, “COMPOSITION FOR PREVENTING AND/OR TREATING METABOLIC DISORDERS AND METHOD OF ITS PREPARATION” (Pharmako Biotechnologies Pty Ltd, priority 2022, published 2026).

Assay: In vivo study in rats fed a high-fat diet for 3 weeks (Example 2): body weight, blood glucose, liver weight, hepatic enzymes
Set-up: species or system Sprague-Dawley rats
Protocol: Sprague-Dawley rats (8-week-old; OzGene, formerly Animal Resources Centre, Perth) were fed a high-fat diet (22% fat/44% energy from fat, sourced from Specialty Feeds, Glen Forrest WA) where animals were provided access to food ad libitum for a period of 3 weeks. The rats were divided into groups and administered treatments as follows: (i) PBS (negative control), (ii) INU-BEN (1 g/kg), (iii) orlistat (tetrahydrolipstatin) (positive control; 75 mg/kg; Dayang Chem (Hangzhou) Co., Ltd) and (iv) a combination group of INU-BEN (1 g/kg) and orlistat (75 mg/kg). The rats were treated daily between […]. The experimental studies involved monitoring body weight daily, prior to dosing. Thereafter, blood samples were collected (by tail vein) prior to the rats being euthanized and were analysed for blood glucose levels and liver enzyme concentrations. The rats were dissected and analysed for fat pad weight and liver weight. The rat microbiomes were also analysed at the completion of the 3-week treatment period via faecal samples.

## CCCCCCCCCCC[C@@H](C[C@@H]1OC(=O)[C@H]1CCCCCC)OC(=O)[C@H](CC(C)C)NC=O [orlistat, tetrahydrolipstatin]
After 3 weeks of treatment, FIGS. 7A-7C
  plasma hepatic enzyme concentrations (LDH, ALT, AST): does not exert a positive impact on plasma hepatic enzyme concentrations
Daily treatment for 3 weeks, INU-BEN 1 g/kg, orlistat 75 mg/kg, vs PBS negative control, FIG. 3/4
  body weight gain (change in rodent body weight normalized to original body weight): performed about the same
